The structures appear in SMILES notation. Some results are limits rather than exact numbers.

Experimental findings from patent US20230364070A1, “PYRROLO[3,2-C]PYRIDIN-4-ONE DERIVATIVES USEFUL IN THE TREATMENT OF CANCER” (Scorpion Therapeutics, Inc., priority 2020, published 2023) are described below.

Common to all, as to format: cell-based
The target of test [1] is T1, pEGFR in Ba/F3 cells expressing EGFR exon 20 NPG Ins D770_N771 (Homo sapiens, UniProt P00533, INS770NPG).
T1 construct: expressed in transfected cells; host or cells: Ba/F3 (murine pro-B cells), retroviral transduction, puromycin selection, IL3-independent pool
T1 sequence (P00533 with tags, fused parts or gaps INS770NPG): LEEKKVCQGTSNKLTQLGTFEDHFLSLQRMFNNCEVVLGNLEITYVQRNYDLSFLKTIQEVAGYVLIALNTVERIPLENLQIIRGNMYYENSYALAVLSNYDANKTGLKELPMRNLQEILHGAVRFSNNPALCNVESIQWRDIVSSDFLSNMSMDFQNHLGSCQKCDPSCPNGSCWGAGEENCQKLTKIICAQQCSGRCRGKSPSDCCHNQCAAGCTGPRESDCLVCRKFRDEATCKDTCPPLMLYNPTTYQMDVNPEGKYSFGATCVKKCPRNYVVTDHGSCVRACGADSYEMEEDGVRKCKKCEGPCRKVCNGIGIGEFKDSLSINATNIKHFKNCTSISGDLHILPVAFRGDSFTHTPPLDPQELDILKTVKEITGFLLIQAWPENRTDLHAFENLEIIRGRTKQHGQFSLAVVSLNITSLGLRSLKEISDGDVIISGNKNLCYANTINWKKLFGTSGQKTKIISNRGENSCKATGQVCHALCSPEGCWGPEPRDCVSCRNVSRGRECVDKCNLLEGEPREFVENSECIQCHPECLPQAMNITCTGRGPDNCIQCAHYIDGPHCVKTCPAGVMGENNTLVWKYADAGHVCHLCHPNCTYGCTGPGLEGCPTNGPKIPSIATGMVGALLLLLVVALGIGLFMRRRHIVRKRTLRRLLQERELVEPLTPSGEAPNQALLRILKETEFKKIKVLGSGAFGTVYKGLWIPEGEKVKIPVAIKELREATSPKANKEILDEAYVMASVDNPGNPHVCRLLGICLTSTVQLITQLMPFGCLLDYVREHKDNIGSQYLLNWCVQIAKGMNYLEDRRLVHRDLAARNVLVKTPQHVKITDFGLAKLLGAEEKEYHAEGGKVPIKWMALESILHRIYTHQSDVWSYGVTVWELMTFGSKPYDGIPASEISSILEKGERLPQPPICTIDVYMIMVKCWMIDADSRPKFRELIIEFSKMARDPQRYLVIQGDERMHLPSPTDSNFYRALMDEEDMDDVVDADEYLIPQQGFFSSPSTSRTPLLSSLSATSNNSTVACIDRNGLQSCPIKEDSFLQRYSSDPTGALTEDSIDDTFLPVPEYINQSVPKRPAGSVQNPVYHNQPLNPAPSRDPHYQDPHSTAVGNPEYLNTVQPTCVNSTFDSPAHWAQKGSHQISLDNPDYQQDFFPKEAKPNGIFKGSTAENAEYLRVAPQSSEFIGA
As to the kind of experiment: Inhibitor activity on EGFR phosphorylation (pEGFR AlphaLISA, 2 h), Ba/F3 EGFR exon 20 NPG insertion. The conditions noted are these: Ba/F3 EGFR exon 20 NPG Ins D770_N771. (In Alpha technology, singlet oxygen from a donor bead excites a nearby acceptor bead.)

The target in test [2] is T2, pEGFR in Ba/F3 cells expressing EGFR exon 20 ASV Ins V769_D770 (Homo sapiens, UniProt P00533, INS769ASV).
T2 construct: expressed in transfected cells; host or cells: Ba/F3 (murine pro-B cells), retroviral transduction, puromycin selection, IL3-independent pool
As to the kind of experiment: Inhibitor activity on EGFR phosphorylation (pEGFR AlphaLISA, 2 h), Ba/F3 EGFR exon 20 ASV insertion. To be noted: Ba/F3 EGFR exon 20 ASV Ins V769_D770.

The target of test [3] is T3, pEGFR in CUTO14 cells (Homo sapiens, UniProt P00533, DUP767-769).
T3 construct: endogenous in cells; host or cells: CUTO14 cells
As to the kind of experiment: Inhibitor activity on EGFR phosphorylation (pEGFR AlphaLISA, 2 h), CUTO14 cells. As to the method: CUTO14 cells were obtained from Dr. Robert C. Doebele at the University of Colorado.
Shake 350 rpm for 1 hr in the dark • 3.4 Prepare donor mix under low light conditions prior to use. Dispense 5 μL of donor mix to all the wells. Mix well on the shaker, seal and wrap in aluminum foil and incubate 1.5 hrs at room temperature in the dark • 3.5 Transfer 18.5 μL mixture to OptiPlate 384, and read using an Envision.

Test [4] has as its target T4, Ba/F3 cells with EGFR WT (Homo sapiens, UniProt P00533).
T4 construct: expressed in transfected cells; host or cells: Ba/F3 (murine pro-B cells), retroviral transduction, puromycin selection, maintained with EGF
As to the kind of experiment: EGFR activity: Ba/F3 cell viability (CellTiter-Glo, 72 h), EGFR WT. The conditions noted are these: read-out: BaF3 WT IC50.

Test [5] deals with T5, Ba/F3 cells with EGFR exon 20 NPG Ins D770_N771 (Homo sapiens, UniProt P00533, INS770NPG).
T5 construct: expressed in transfected cells; host or cells: Ba/F3 (murine pro-B cells), retroviral transduction, puromycin selection, IL3-independent pool
T5 sequence (P00533 with tags, fused parts or gaps INS770NPG): as above
Put plainly: EGFR activity: Ba/F3 cell viability (CellTiter-Glo, 72 h), EGFR exon 20 NPG insertion. To be noted: EGFR exon 20 NPG Ins D770_N771, cell viability, read-out: BaF3 NPG IC50.

The target in test [6] is T6, Ba/F3 cells with EGFR exon 20 ASV Ins V769_D770 (Homo sapiens, UniProt P00533, INS769ASV).
T6 construct: expressed in transfected cells; host or cells: Ba/F3 (murine pro-B cells), retroviral transduction, puromycin selection, IL3-independent pool
T6 sequence (P00533 with tags, fused parts or gaps INS769ASV): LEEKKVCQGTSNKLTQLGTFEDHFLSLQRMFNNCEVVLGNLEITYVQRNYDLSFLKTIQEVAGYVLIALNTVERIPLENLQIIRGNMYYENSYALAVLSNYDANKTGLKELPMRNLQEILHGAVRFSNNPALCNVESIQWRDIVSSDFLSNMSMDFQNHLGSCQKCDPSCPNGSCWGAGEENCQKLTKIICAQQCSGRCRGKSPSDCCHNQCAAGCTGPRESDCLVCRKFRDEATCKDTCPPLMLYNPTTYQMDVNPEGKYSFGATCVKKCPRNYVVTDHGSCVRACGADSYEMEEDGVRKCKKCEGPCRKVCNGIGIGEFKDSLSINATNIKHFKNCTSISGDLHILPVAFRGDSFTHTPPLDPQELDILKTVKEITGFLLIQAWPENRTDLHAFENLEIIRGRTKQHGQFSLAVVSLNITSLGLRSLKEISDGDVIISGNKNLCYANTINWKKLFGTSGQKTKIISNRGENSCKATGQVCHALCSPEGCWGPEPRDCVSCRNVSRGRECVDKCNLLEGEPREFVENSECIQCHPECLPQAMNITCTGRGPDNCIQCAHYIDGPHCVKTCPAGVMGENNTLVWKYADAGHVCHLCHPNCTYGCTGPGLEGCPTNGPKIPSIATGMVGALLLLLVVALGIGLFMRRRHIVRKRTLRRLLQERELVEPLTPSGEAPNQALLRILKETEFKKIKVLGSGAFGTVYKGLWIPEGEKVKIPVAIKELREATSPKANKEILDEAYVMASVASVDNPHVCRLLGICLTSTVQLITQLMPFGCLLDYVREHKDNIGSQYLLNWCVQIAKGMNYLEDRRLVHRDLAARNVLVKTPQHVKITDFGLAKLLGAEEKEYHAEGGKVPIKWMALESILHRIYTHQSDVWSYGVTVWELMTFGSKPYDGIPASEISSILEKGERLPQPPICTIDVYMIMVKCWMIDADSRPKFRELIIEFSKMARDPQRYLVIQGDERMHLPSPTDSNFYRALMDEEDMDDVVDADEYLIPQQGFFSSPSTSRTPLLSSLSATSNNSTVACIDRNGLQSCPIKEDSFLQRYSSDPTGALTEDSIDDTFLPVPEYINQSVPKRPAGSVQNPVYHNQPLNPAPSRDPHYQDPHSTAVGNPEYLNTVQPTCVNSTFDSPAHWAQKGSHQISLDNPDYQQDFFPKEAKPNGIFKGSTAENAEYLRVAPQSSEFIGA
As to the kind of experiment: EGFR activity: Ba/F3 cell viability (CellTiter-Glo, 72 h), EGFR exon 20 ASV insertion. The conditions noted are these: EGFR exon 20 ASV Ins V769_D770, cell viability, read-out: BaF3 ASV IC50. Background: In ATP-based viability assays light output follows the ATP content of the culture.

T4 sequence (P00533 25-1210): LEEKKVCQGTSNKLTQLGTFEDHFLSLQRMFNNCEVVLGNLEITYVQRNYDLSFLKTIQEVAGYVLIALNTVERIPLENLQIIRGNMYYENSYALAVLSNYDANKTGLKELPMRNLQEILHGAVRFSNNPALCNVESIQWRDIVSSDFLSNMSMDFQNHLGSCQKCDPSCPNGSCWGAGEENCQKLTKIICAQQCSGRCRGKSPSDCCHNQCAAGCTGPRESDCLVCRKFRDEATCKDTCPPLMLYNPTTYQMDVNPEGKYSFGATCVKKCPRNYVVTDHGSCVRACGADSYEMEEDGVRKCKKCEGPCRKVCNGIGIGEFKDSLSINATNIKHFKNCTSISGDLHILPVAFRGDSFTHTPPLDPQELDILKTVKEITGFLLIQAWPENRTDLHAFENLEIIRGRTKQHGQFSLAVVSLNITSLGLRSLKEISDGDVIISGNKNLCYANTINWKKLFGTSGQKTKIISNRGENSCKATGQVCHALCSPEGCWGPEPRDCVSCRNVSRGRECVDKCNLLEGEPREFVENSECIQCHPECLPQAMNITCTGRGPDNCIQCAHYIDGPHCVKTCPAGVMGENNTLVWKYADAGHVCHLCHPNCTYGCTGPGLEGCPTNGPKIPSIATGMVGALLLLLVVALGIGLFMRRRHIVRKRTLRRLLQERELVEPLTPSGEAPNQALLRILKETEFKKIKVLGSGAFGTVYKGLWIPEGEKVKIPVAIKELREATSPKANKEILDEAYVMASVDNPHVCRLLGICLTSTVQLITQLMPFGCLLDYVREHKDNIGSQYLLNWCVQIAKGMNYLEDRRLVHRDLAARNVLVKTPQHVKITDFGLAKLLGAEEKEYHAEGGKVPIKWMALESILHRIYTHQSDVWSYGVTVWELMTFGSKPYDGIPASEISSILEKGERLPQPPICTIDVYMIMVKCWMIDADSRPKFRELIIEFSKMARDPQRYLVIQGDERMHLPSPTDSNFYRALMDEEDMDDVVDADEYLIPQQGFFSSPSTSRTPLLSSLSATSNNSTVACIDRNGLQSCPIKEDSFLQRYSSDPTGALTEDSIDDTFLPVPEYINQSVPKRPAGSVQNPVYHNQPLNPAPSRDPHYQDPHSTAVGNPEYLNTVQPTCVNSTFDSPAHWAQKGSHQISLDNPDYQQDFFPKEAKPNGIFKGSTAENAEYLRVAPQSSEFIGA

As for `C=CC(=O)N1CC[C@H]1COc1cnccc1-c1[nH]c2c(c1Nc1cccc(Cl)c1OC)C(=O)NCC2` [145b, 3-[(3-chloro-2-methoxyphenyl)amino]-2-(3-[[(2S)-1-(prop-2-enoyl)azetidin-2-yl]methoxy]pyridin-4-yl)-1H,5H,6H,7H-pyrrolo[3,2-c]pyridin-4-one], the IC50 in test [1], in test [2] and in test [3] was under 100 nM in each case.
`C=CC(=O)N1CCC[C@@H]1COc1cnccc1-c1[nH]c2c(c1Nc1cccc(F)c1C)C(=O)NCC2` [Compound 140, (R)-2-(3-((1-acryloylpyrrolidin-2-yl)methoxy)pyridin-4-yl)-3-((3-fluoro-2-methylphenyl)amino)-1,5,6,7-tetrahydro-4H-pyrrolo[3,2-c]pyridin-4-one]: the IC50 in test [4] is 100 to 1000 nM; in test [5] it was under 100 nM; in test [6] it was under 100 nM; in test [1], under 100 nM; in test [2], under 100 nM; in test [3], under 100 nM.
For the compound `C=CC(=O)N1CC[C@@H]1COc1cnccc1-c1[nH]c2c(c1Nc1cccc(Cl)c1OC)C(=O)NCC2` [Compound 145a, (R)-2-(3-((1-acryloylazetidin-2-yl)methoxy)pyridin-4-yl)-3-((3-chloro-2-methoxyphenyl)amino)-1,5,6,7-tetrahydro-4H-pyrrolo[3,2-c]pyridin-4-one], the IC50 in test [4] is 100 to 1000 nM; in test [5], under 100 nM; in test [6], under 100 nM; in test [1], under 100 nM; in test [2], under 100 nM; in test [3] it was under 100 nM.
With `C=CC(=O)N1CCC[C@H]1C#Cc1cnccc1-c1[nH]c2c(c1Nc1cccc(F)c1OC)C(=O)NCC2` [Compound 147a, (S)-2-(3-((1-acryloylpyrrolidin-2-yl)ethynyl)pyridin-4-yl)-3-((3-fluoro-2-methoxyphenyl)amino)-1,5,6,7-tetrahydro-4H-pyrrolo[3,2-c]pyridin-4-one], the IC50 in test [4], in test [5], in test [6], in test [1], in test [2] and in test [3] was under 100 nM throughout.
Regarding `C=CC(=O)N1CCC[C@@H]1C#Cc1cnccc1-c1[nH]c2c(c1Nc1cccc(F)c1OC)C(=O)NCC2` [Compound 147b, (R)-2-(3-((1-acryloylpyrrolidin-2-yl)ethynyl)pyridin-4-yl)-3-((3-fluoro-2-methoxyphenyl)amino)-1,5,6,7-tetrahydro-4H-pyrrolo[3,2-c]pyridin-4-one], the IC50 in test [4] was 100 to 1000 nM; in test [5], under 100 nM; in test [6] it was under 100 nM; in test [1], under 100 nM; in test [2], under 100 nM; in test [3] it was under 100 nM.
As for `C=CC(=O)N1CCC[C@H]1COc1cnccc1-c1[nH]c2c(c1Nc1cccc(F)c1C)C(=O)NCC2` [Compound 467, 3-[(3-fluoro-2-methylphenyl)amino]-2-(3-[[(2S)-1-(prop-2-enoyl)pyrrolidin-2-yl]methoxy]pyridin-4-yl)-1H,5H,6H,7H-pyrrolo[3,2-c]pyridin-4-one], the IC50 in test [4], in test [5], in test [6], in test [1], in test [2] and in test [3] was under 100 nM in each case.
Consider `COc1c(F)cccc1Nc1c(-c2ccncc2OCc2cccn3ccnc23)[nH]c2c1C(=O)NCC2` [Compound 475, 3-[(3-fluoro-2-methoxyphenyl)amino]-2-(3-[imidazo[1,2-a]pyridin-8-ylmethoxy]pyridin-4-yl)-1H,5H,6H,7H-pyrrolo[3,2-c]pyridin-4-one], for which the IC50 in test [4] is 100 to 1000 nM; in test [5], 100 to 1000 nM; in test [6], 100 to 1000 nM; in test [1], under 100 nM; in test [2] it was under 100 nM.
For `COc1c(F)cccc1Nc1c(-c2ccncc2OCc2ccncn2)[nH]c2c1C(=O)NCC2` [Compound 478, 3-[(3-fluoro-2-methoxyphenyl)amino]-2-[3-(pyrimidin-4-ylmethoxy)pyridin-4-yl]-1H,5H,6H,7H-pyrrolo[3,2-c]pyridin-4-one], the IC50 in test [4] was 100 to 1000 nM; in test [5], under 100 nM; in test [6], under 100 nM; in test [1], under 100 nM; in test [2] it was under 100 nM.
For `COc1c(F)cccc1Nc1c(-c2ccncc2OCc2ccnn2C)[nH]c2c1C(=O)NCC2` [Compound 480, 3-[(3-fluoro-2-methoxyphenyl)amino]-2-[3-[(2-methylpyrazol-3-yl)methoxy]pyridin-4-yl]-1H,5H,6H,7H-pyrrolo[3,2-c]pyridin-4-one], the IC50 in test [4] is over 1000 nM; in test [5], over 1000 nM; in test [6] it was over 1000 nM; in test [1], under 100 nM; in test [2] it was 100 to 1000 nM.
Turning to `COc1c(F)cccc1Nc1c(-c2ccncc2OCCc2ccco2)[nH]c2c1C(=O)NCC2` [Compound 483, 3-[(3-fluoro-2-methoxyphenyl)amino]-2-[3-[2-(furan-2-yl)ethoxy]pyridin-4-yl]-1H,5H,6H,7H-pyrrolo[3,2-c]pyridin-4-one], the IC50 in test [4] was 100 to 1000 nM; in test [5] it was under 100 nM; in test [6] it was 100 to 1000 nM; in test [1], under 100 nM; in test [2], under 100 nM.
Turning to `C=CC(=O)NC1(C#Cc2cnccc2-c2[nH]c3c(c2Nc2cccc(Cl)c2OC)C(=O)NCC3)CC1` [compound 207, N-{1-[2-(4-{3-[(3-chloro-2-methoxyphenyl)amino]-4-oxo-1H,5H,6H,7H-pyrrolo[3,2-c]pyridin-2-yl}pyridin-3-yl)ethynyl]cyclopropyl}prop-2-enamide], the IC50 in test [1], in test [2] and in test [3] was under 100 nM each time.
On to `C=CC(=O)N1CC(F)(F)C[C@@H]1C#Cc1cnccc1-c1[nH]c2c(c1Nc1cccc(Cl)c1OC)C(=O)NCC2` [compound 519, 3-[(3-chloro-2-methoxyphenyl)amino]-2-(3-[2-[(2R)-4,4-difluoro-1-(prop-2-enoyl)pyrrolidin-2-yl]ethynyl]pyridin-4-yl)-1H,5H,6H,7H-pyrrolo[3,2-c]pyridin-4-one], for which the concentration for half-maximal inhibition (IC50) in test [1], in test [2] and in test [3] was under 100 nM throughout.
As to `COc1c(Cl)cccc1Nc1c(-c2ccncc2C#CC2(C(F)(F)F)CC2)[nH]c2c1C(=O)NCC2` [compound 528, 3-[(3-chloro-2-methoxyphenyl)amino]-2-(3-[2-[1-(trifluoromethyl)cyclopropyl]ethynyl]pyridin-4-yl)-1H,5H,6H,7H-pyrrolo[3,2-c]pyridin-4-one], the IC50 in test [1], in test [2] and in test [3] was under 100 nM in each case.
On to `COc1c(Cl)cccc1Nc1c(-c2ccncc2C#CC2(C(F)F)CC2)[nH]c2c1C(=O)NCC2` [compound 546], for which the IC50 was 100 to 1000 nM in test [4]; under 100 nM in test [5]; under 100 nM in test [6]; under 100 nM in test [1]; under 100 nM in test [2]; under 100 nM in test [3].

Broadly, the IC50 is the concentration at which inhibition is half-maximal.
